Data on 5 molecules can be found in US10519148B2, “Acrylic acid derivative, preparation method and use in medicine thereof” (Zhejiang Hisun Pharmaceutical Co., Ltd., priority 2015, dated 2019).

Assay [1] addresses T1, recombinant human estrogen receptor ERα ligand binding domain (Homo sapiens, UniProt P03372).
T1 construct: purchased Invitrogen PV4543
T1 sequence (P03372 311-547 limits assumed): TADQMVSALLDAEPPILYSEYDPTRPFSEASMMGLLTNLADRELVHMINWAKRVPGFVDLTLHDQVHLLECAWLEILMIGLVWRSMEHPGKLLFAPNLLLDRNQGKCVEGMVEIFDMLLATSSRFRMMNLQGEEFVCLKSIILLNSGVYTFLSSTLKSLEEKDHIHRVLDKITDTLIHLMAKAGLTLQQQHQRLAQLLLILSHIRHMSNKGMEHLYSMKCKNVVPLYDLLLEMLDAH
Nature of the assay: LanthaScreen TR-FRET competition binding assay with estrogen receptor ERα ligand binding domain. To be noted: TR-FRET competition with Fluormone ES2, ERα-LBD (GST); read-out: IC50 (nM) ER Reporter. The source says:
The present invention utilizes the Lantha Screen™ Time-resolved Fluorescence Resonance Energy Transfer (TR-FRET) to assess the ability of the compounds to bind to the isolated ligand domain of estrogen receptor Era in competition assay. The fluorophore (Fluormone ES2, product code P2645) and the recombinant human estrogen receptor ERα ligand binding domain (product code PV4543) using in the TR-FRET were purchased from Invitrogen. The design principle of this assay is as follows: the estrogen receptor ERα-LBD (GST) and the fluorophore-containing ligand form a receptor/fluorophore complex, followed by the addition of terbium (Tb)-labeled anti-GST antibody (product code PV3551), the indirect labeling of the receptor is achieved by the linkage with the GST on the receptor, and the ability of competitive coordination between the test compound and the fluorescent ligand with the receptor is evaluated by detecting the attenuation of the TR-FRET effect between the chromophore (Tb-anti-GST antibody) on the fluorescent label ERα and the fluorescent ligand (Fluormone ES2). We used the following sample preparation and test methods for the test of the synthesized compounds. The instrument we used is Beckman Coulter BioPAPTR FRD microfluidic workstation.
(1) Acoustic dispense 120 nL of the test compound into a black low volume 384 well assay plates;
(2) Preparation of 1×ERα-LBD/Tb-anti-GST antibody complex in ES2 buffer and incubation therein for 20 minutes;
(3) The 1×ES2 was further added to the above ERα-LBD/Tb-anti-GST antibody complex solution before the test;
(4) 12 μL of the ERα-LBD/Tb-anti-GST antibody complex solution prepared in step 3 was added to the wells of the assay plate;
(5) The plates were shielded from light and incubated at room temperature for one hour; (6) At 337 nm excitation light, the emission light at 490 nm and 520 nm was detected by BMG Phera STAR.
The test compounds of a series of concentrations (10 mM, 0.1 mM, 1 μM and 10 nM) prepared on a microplate were transferred to the analytical plate using Labcyte Echo 550. 120 nL of DMSO solution for each test compound was added to each well of the assay plate and tested at 12 different concentrations (100, 29.17, 10.42, 2.083, 1, 0.292, 0.104, 0.02083, 0.01, 0.0029, 0.00104, 0.001 μM). The TR-FRET primitive fluorescence data was used to obtain the fitting curve software such as Origin or Genedata. Half maximal inhibitory concentration IC50 of each compound was used to characterize the competitive binding ability of the test compound with the estrogen receptor ERα. IC50 represents the concentration of the test compound that was calculated when the coordination of the tracer fluorophore (ES2) with the estrogen receptor was reduced by 50%, and the IC50 was determined as shown in Table 3.
For orientation: In TR-FRET formats the signal depends on donor and acceptor labels being close together.

In the next assay the target is T2, ERα (Homo sapiens, UniProt P03372).
T2 construct: host or cells: MCF-7
T2 sequence (P03372 1-595): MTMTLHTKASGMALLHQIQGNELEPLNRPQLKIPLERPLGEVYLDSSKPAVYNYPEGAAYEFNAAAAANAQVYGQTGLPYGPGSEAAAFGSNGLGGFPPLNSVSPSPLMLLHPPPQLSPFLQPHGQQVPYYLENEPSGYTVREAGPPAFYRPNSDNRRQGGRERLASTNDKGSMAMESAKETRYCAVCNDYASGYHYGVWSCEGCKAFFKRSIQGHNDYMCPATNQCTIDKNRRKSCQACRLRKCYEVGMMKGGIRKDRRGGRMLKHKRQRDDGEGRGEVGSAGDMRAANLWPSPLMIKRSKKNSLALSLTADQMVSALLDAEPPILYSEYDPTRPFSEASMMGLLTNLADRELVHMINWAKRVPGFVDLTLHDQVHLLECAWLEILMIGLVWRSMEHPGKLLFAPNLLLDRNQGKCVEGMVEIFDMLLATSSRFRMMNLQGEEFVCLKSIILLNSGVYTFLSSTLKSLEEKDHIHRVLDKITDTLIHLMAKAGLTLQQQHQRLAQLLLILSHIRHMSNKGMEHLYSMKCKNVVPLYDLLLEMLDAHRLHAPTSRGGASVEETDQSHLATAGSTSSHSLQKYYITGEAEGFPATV
Nature of the assay: ERα down-regulation immunofluorescence assay in MCF-7 cells. The format is cell-based. The following applies: immunofluorescence of ERα level, read-out: IC50 (nM) ERα down-degradation. The method, then:
The down-regulation of the preferred compounds of the present invention on the protein level of ERα is evaluated by immunofluorescence assay using human breast cancer cell line MCF-7. MCF-7 cells used in the experiment were revived directly from frozen cells (about 5×10^6). The MCF-7 frozen cell line (Sigma D5921) purchased from Sigma was stored in DMEM medium containing 2 mM […]. 5% (v/v) Charcoal/Dextran-treated bovine serum […] were added to the revived MCF-7 cells and the cell concentration was determined using Coulter Counter.
The cells used for the test were diluted to 3.75×10^4 cells/mL with culture medium and 40 μL/well of the above cell suspension was transferred to 384-well black transparent bottom plates and incubated overnight at 37° C., 5% CO2. 10 mM compound stock solutions were diluted to a series of test concentrations (10 mM, 0.1 mM, 1 μM, 0.01 μM etc.) and dispensed into cell plates. 20 μL of 11.1% (v/v) aqueous formaldehyde solution (phosphate buffered saline) was added to each of the different concentrations of the test compounds and MCF-7 cell culture solution (40 μL), and the final concentration of formaldehyde in the solution was 3.7% (v/v). Cells were fixed at room temperature for 20 minutes, washed twice with 250 μL of PBS/Proclin, and then 40 μL of PBS/Proclin was added and refrigerated at 4° C. The immunostaining of the protein was performed using the automated AutoElisa kit. The PBS/Proclin solution was aspirated from each plate well and then 40 μL of PBS containing 0.5% Tween 20 (v/v) was added for cell permeation. After one hour, the plate was washed with 250 μL of PBS/0.05% Tween 20/Proclin for three times, and 20 μL of ERα rabbit monoclonal antibody (Thermofisher) in PBS/Tween™ 20/3% (w/v) BSA solution (1:1000) was added. The plates were incubated overnight at 4° C., washed three times with 250 μL of PBS/Tween™ 20/Proclin, and then 20 μL of goat anti-rabbit IgG AlexaFluor 594 or goat anti-rabbit IgG AlexaFluor 488 antibody (containing Hoechst stain (1:5000) in PBS/Tween™ 20/3% (w/v) BSA solution was added, and the system was incubated at room temperature for one hour. After the plates were washed three times with 250 μL of PBS/0.05% (v/v) Tween™ 20/Proclin, 20 μL of PBS was added and the paltes were kept in dark place at 4° C. The level of estrogen receptor ERα in MCF-7 cells was calculated through Cellomics Arrayscan detection of fluorescence emission intensity at two emission wave bands at 594 nm (24-hour time point) and 488 nm (5-hour time point). The average fluorescence emission intensity of each cell is positively correlated with the ERα receptor level of the cell. The primitive fluorescence data was used to obtain the fitting curve by software such as Origin or Genedata. Half maximal inhibitory concentration IC50 was used to characterize the down-regulation of estrogen receptor ERα by the test compounds, which is the concentration of the test compound when the fluorescence emission intensity is reduced to 50% of the average maximum fluorescence intensity.

For `C[C@@H]1Cc2c([nH]c3ccccc23)[C@@H](c2c(F)cc(/C=C/C(=O)O)cc2F)N1CC1(F)CCCCC1` [Example 6, (E)-3-(3,5-difluoro-4-((1R,3R)-2-((1-fluorocyclohexyl)methyl)-3-methyl-2,3,4,9-tetrahydro-1H-pyrido[3,4-b]indol-1-yl)phenyl)acrylic acid], the IC50 in assay [1] was 10 to 250 nM. Further, at ERα, the DC50 lay within 10 to 250 nM.

Regarding `C[C@@H]1Cc2c([nH]c3ccccc23)[C@@H](c2c(F)cc(/C=C/C(=O)O)cc2F)N1CC1CC1` [Example 2, (E)-3-(4-((1R,3R)-2-(cyclopropylmethyl)-3-methyl-2,3,4,9-tetrahydro-1H-pyrido[3,4-b]indol-1-yl)-3,5-difluorophenyl)acrylic acid], the IC50 in assay [1] fell in the range of 0.1 to 10 nM. Moreover, on ERα, the DC50 fell in the range of 0.1 to 10 nM.

With `C[C@@H]1Cc2c([nH]c3ccccc23)[C@@H](c2c(F)cc(/C=C/C(=O)O)cc2F)N1CC1COC1` [Example 11, (E)-3-(3,5-difluoro-4-((1R,3R)-3-methyl-2-(oxetane-3-ylmethyl)-2,3,4,9-tetrahydro-1H-pyrido[3,4-b]indol-1-yl)phenyl)acrylic acid], the IC50 in assay [1] is 10 to 250 nM. Also, the DC50 at ERα is 10 to 250 nM.

`C[C@H]1Cc2c([nH]c3cccc(F)c23)[C@H](c2c(F)cc(/C=C/C(=O)O)cc2F)N1CC1(F)CC1` [Example 13, (E)-3-(3,5-difluoro-4-((1S,3S)-5-fluoro-2-((1-fluorocyclopropyl)methyl)-3-methyl-2,3,4,9-tetrahydro-1H-pyrido[3,4-b]indol-1-yl)phenyl)acrylic acid]: the IC50 in assay [1] is 250 to 1000 nM. At ERα, the DC50 fell in the range of 250 to 1000 nM.

`C[C@@H]1Cc2c([nH]c3ccccc23)[C@@H](c2c(F)cc(/C=C/C(=O)O)cc2F)N1CC1CCCC1` [Example 3, (E)-3-(4-((1R,3R)-2-(cyclopentylmethyl)-3-methyl-2,3,4,9-tetrahydro-1H-pyrido[3,4-b]indol-1-yl)-3,5-difluorophenyl)acrylic acid]: the IC50 in assay [1] was in the range of 10 to 250 nM. In addition, the DC50 at ERα was 10 to 250 nM.

As a reminder, the IC50 is the concentration at which inhibition is half-maximal.
